According to patent US20240217983A1, “GPR119 AGONISTS” (Kallyope, Inc., priority 2021, published 2024):

Molecular target: T1, human GPR119 (hGPR119) (Homo sapiens, UniProt Q8TDV5)
T1 construct: expressed in transfected cells
T1 sequence (Q8TDV5 1-335): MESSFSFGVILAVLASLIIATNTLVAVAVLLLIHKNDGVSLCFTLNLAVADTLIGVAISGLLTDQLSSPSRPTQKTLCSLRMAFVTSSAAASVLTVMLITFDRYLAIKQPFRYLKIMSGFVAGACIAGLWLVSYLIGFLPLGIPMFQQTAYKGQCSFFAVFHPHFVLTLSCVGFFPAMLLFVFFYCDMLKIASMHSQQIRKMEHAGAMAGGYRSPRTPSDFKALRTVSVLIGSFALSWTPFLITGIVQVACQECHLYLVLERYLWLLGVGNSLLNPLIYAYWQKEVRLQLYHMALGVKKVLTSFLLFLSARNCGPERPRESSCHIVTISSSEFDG
Assay: cAMP accumulation assay (Cisbio cAMP Gs dynamic HTRF kit) in CHO-K1 cells stably expressing human GPR119
Type: cell-based
Conditions: 4-parameter fit; for Emax: 1 h, % activity normalized to Max and Min controls; for EC50: 60 minutes at 37° C.
How it was run: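 CHO-K1 cells stably expressing hGPR119, used as assay-ready frozen stocks at ~10,000 cells/well, exposed to compound dose-response in stimulation buffer with Tween 80 for 60 min at 37° C. cAMP read by HTRF (665/620 nm ratio), normalised to Max/Min controls; EC50 and Max activity from 4-parameter fit.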

COCc1cnc(N2CCC(CCCOc3cc(F)c(CC(=O)N4CCN(C[C@H](O)[C@@H](O)[C@H](O)[C@H](O)CO)CC4)c(F)c3)CC2)nc1 [Example 99, 2-(2,6-difluoro-4-(3-(1-(5-(methoxymethyl)pyrimidin-2-yl)piperidin-4-yl)propoxy)phenyl)-1-(4-((2S,3R,4R,5R)-2,3,4,5,6-pentahydroxyhexyl)piperazin-1-yl)ethan-1-one]
Emax: 100 to 130%
EC50: ≤ 100 nM

COCc1cnc(N2CCC(CCCCOc3ccc(CC(=O)N4CCN(C[C@H](O)[C@@H](O)[C@H](O)[C@H](O)CO)CC4)c(F)c3)CC2)nc1 [Example 100, 2-(2-fluoro-4-(4-(1-(5-(methoxymethyl)pyrimidin-2-yl)piperidin-4-yl)butoxy)phenyl)-1-(4-((2S,3R,4R,5R)-2,3,4,5,6-pentahydroxyhexyl)piperazin-1-yl)ethan-1-one]
Emax: 100 to 130%
EC50: 100 to 1000 nM

COCc1cnc(N2CCC(CCCCOc3cc(F)c(CC(=O)N4CCN(C[C@H](O)[C@@H](O)[C@H](O)[C@H](O)CO)CC4)c(F)c3)CC2)nc1 [Example 101, 2-(2,6-difluoro-4-(4-(1-(5-(methoxymethyl)pyrimidin-2-yl)piperidin-4-yl)butoxy)phenyl)-1-(4-((2S,3R,4R,5R)-2,3,4,5,6-pentahydroxyhexyl)piperazin-1-yl)ethan-1-one]
Emax: 100 to 130%
EC50: ≤ 100 nM

COCc1cnc(N2CCC(CCOCc3ccc(CC(=O)N4CCN(C[C@H](O)[C@@H](O)[C@H](O)[C@H](O)CO)CC4)c(F)c3)CC2)nc1 [Example 103, 2-(2-fluoro-4-((2-(1-(5-(methoxymethyl)pyrimidin-2-yl)piperidin-4-yl)ethoxy)methyl)phenyl)-1-(4-((2S,3R,4R,5R)-2,3,4,5,6-pentahydroxyhexyl)piperazin-1-yl)ethan-1-one]
Emax: 50 to 100%
EC50: > 10000 nM

CC(C)OC(=O)N1CCC(CCCOc2ccc(CC(=O)N3CCN(C[C@H](O)[C@@H](O)[C@H](O)[C@H](O)CO)CC3)c(F)c2)CC1 [Example 104, isopropyl 4-(3-(3-fluoro-4-(2-oxo-2-(4-((2S,3R,4R,5R)-2,3,4,5,6-pentahydroxyhexyl)piperazin-1-yl)ethyl)phenoxy)propyl)piperidine-1-carboxylate]
Emax: 100 to 130%
EC50: 100 to 1000 nM

O=C(Cc1ccc(OCCCC2CCN(C(=O)OC3(C(F)(F)F)COC3)CC2)cc1F)N1CCN(C[C@H](O)[C@@H](O)[C@H](O)[C@H](O)CO)CC1 [Example 105, 3-(trifluoromethyl)oxetan-3-yl 4-(3-(3-fluoro-4-(2-oxo-2-(4-((2S,3R,4R,5R)-2,3,4,5,6-pentahydroxyhexyl)piperazin-1-yl)ethyl)phenoxy)propyl)piperidine-1-carboxylate]
Emax: 100 to 130%
EC50: 100 to 1000 nM

O=C(Cc1c(F)cc(OCCCC2CCN(C(=O)OC3(C(F)(F)F)COC3)CC2)cc1F)N1CCN(C[C@H](O)[C@@H](O)[C@H](O)[C@H](O)CO)CC1 [Example 106, 3-(trifluoromethyl)oxetan-3-yl 4-(3-(3,5-difluoro-4-(2-oxo-2-(4-((2S,3R,4R,5R)-2,3,4,5,6-pentahydroxyhexyl)piperazin-1-yl)ethyl)phenoxy)propyl)piperidine-1-carboxylate]
Emax: 100 to 130%
EC50: 100 to 1000 nM

CC1(CCCCOc2ccc(CC(=O)N3CCN(C[C@H](O)[C@@H](O)[C@H](O)[C@H](O)CO)CC3)c(F)c2)CCN(c2ncc(Cl)cn2)CC1 [Example 107, 2-(4-(4-(1-(5-chloropyrimidin-2-yl)-4-methylpiperidin-4-yl)butoxy)-2-fluorophenyl)-1-(4-((2S,3R,4R,5R)-2,3,4,5,6-pentahydroxyhexyl)piperazin-1-yl)ethan-1-one]
Emax: 100 to 130%
EC50: 100 to 1000 nM

O=C(Cc1ccc(OCCC2CC23CCN(c2ncc(Cl)cn2)CC3)cc1F)N1CCN(C[C@H](O)[C@@H](O)[C@H](O)[C@H](O)CO)CC1 (stereo partly drawn) [Example 108, 2-(4-(2-(6-(5-chloropyrimidin-2-yl)-6-azaspiro[2.5]octan-1-yl)ethoxy)-2-fluorophenyl)-1-(4-((2S,3R,4R,5R)-2,3,4,5,6-pentahydroxyhexyl)piperazin-1-yl)ethan-1-one]
Emax: 100 to 130%
EC50: 100 to 1000 nM

O=C(Cc1ccc(OCCCC2CC23CCN(c2ncc(Cl)cn2)CC3)cc1F)N1CCN(C[C@H](O)[C@@H](O)[C@H](O)[C@H](O)CO)CC1 (stereo partly drawn) [Example 109, 2-(4-(3-(6-(5-chloropyrimidin-2-yl)-6-azaspiro[2.5]octan-1-yl)propoxy)-2-fluorophenyl)-1-(4-((2S,3R,4R,5R)-2,3,4,5,6-pentahydroxyhexyl)piperazin-1-yl)ethan-1-one]
Emax: 100 to 130%
EC50: 100 to 1000 nM

O=C(Cc1ccc(OCCC2CC3(CCN(c4ncc(Cl)cn4)CC3)C2)cc1F)N1CCN(C[C@H](O)[C@@H](O)[C@H](O)[C@H](O)CO)CC1 [Example 110, 2-(4-(2-(7-(5-chloropyrimidin-2-yl)-7-azaspiro[3.5]nonan-2-yl)ethoxy)-2-fluorophenyl)-1-(4-((2S,3R,4R,5R)-2,3,4,5,6-pentahydroxyhexyl)piperazin-1-yl)ethan-1-one]
Emax: 100 to 130%
EC50: 100 to 1000 nM

O=C(Cc1ccc(OCCCC2CC3(CCN(c4ncc(Cl)cn4)CC3)C2)cc1F)N1CCN(C[C@H](O)[C@@H](O)[C@H](O)[C@H](O)CO)CC1 [Example 111, 2-(4-(3-(7-(5-chloropyrimidin-2-yl)-7-azaspiro[3.5]nonan-2-yl)propoxy)-2-fluorophenyl)-1-(4-((2S,3R,4R,5R)-2,3,4,5,6-pentahydroxyhexyl)piperazin-1-yl)ethan-1-one]
Emax: 100 to 130%
EC50: ≤ 100 nM

O=C(Cc1ccc(OCCCCC2CC3(CCN(c4ncc(Cl)cn4)CC3)C2)cc1F)N1CCN(C[C@H](O)[C@@H](O)[C@H](O)[C@H](O)CO)CC1 [Example 112, 2-(4-(4-(7-(5-chloropyrimidin-2-yl)-7-azaspiro[3.5]nonan-2-yl)butoxy)-2-fluorophenyl)-1-(4-((2S,3R,4R,5R)-2,3,4,5,6-pentahydroxyhexyl)piperazin-1-yl)ethan-1-one]
Emax: 100 to 130%
EC50: 100 to 1000 nM

O=C(Cc1ccc(OCCC2CCC23CCN(c2ncc(Cl)cn2)CC3)cc1F)N1CCN(C[C@H](O)[C@@H](O)[C@H](O)[C@H](O)CO)CC1 (stereo partly drawn) [Example 113, 2-(4-(2-(7-(5-chloropyrimidin-2-yl)-7-azaspiro[3.5]nonan-1-yl)ethoxy)-2-fluorophenyl)-1-(4-((2S,3R,4R,5R)-2,3,4,5,6-pentahydroxyhexyl)piperazin-1-yl)ethan-1-one]
Emax: 50 to 100%
EC50: > 10000 nM

O=C(Cc1ccc(OCC2CC(C3CCN(c4ncc(Cl)cn4)CC3)C2)cc1F)N1CCN(C[C@H](O)[C@@H](O)[C@H](O)[C@H](O)CO)CC1 (stereo partly drawn) [Example 114, 2-(4-((3-(1-(5-chloropyrimidin-2-yl)piperidin-4-yl)cyclobutyl)methoxy)-2-fluorophenyl)-1-(4-((2S,3R,4R,5R)-2,3,4,5,6-pentahydroxyhexyl)piperazin-1-yl)ethan-1-one]
Emax: 100 to 130%
EC50: ≤ 100 nM

O=C(Cc1ccc(OCCC2CC(C3CCN(c4ncc(Cl)cn4)CC3)C2)cc1F)N1CCN(C[C@H](O)[C@@H](O)[C@H](O)[C@H](O)CO)CC1 (stereo partly drawn) [Example 115, 2-(4-(2-(3-(1-(5-chloropyrimidin-2-yl)piperidin-4-yl)cyclobutyl)ethoxy)-2-fluorophenyl)-1-(4-((2S,3R,4R,5R)-2,3,4,5,6-pentahydroxyhexyl)piperazin-1-yl)ethan-1-one]
Emax: 100 to 130%
EC50: 100 to 1000 nM
